Test results: ChEMBL document CHEMBL3882243, “Biphenyl compounds useful as muscarinic receptor antagonists” (2005)

Legend:
[1] = target: Muscarinic acetylcholine receptor M3 (Homo sapiens, UniProt P20309); experiment: Displacement of [3H]-NMS from human recombinant M3 receptor expressed in CHO cell membranes measured after 60 mins by topcount liquid scintillation counting
Cavia porcellus = experiment: Bronchoprotective activity in Dunkan-Hartley guinea pig model of acetylcholine-induced bronchoconstriction assessed as efficacious dose that limited bronchrestriction response to 50 ug/mL dose of acetylcholine to doubling of baseline pulmonary resistance administered via nebulization for 10 mins measured at 1.5 hrs post dose by whole body plethysmography; assay type: functional

Sequence of Muscarinic acetylcholine receptor M3 (P20309 whole entry): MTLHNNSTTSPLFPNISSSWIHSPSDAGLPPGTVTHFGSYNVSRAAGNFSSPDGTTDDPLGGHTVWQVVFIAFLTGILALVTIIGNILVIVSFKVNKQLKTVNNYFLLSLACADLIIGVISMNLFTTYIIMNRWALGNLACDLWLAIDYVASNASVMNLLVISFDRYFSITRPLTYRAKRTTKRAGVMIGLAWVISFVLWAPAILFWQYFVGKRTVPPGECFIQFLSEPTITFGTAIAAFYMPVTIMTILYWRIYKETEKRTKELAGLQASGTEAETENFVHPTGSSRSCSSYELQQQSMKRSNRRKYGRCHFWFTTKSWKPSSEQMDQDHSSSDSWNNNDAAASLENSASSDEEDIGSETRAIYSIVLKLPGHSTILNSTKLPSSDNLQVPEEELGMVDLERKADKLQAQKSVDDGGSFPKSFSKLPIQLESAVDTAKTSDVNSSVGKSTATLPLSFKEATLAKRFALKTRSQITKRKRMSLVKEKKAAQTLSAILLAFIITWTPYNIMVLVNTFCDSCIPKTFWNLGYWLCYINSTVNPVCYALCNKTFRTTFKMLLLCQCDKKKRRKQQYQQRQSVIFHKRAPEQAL

SMILES | Ki [1] | ED (Cavia porcellus)
CCN(CCN1CCC(OC(=O)Nc2ccccc2-c2ccccc2)CC1)C(=O)c1ccc(CN2CCC(C(N)=O)CC2)cc1 | < 5 nM | 
CN(CCN1CCC(OC(=O)Nc2ccccc2-c2ccccc2)CC1)C(=O)c1ccc(CN2CCC(C(N)=O)CC2)cc1 [REVEFENACIN] |  | <200 µg/mL
